Here are results for ten compounds from PubChem BioAssay (NCI).

Common to all, as to assay: DTP human tumour cell line panel, 48 h
In assay [1] the test system is CAKI-1 renal.
In assay [2] the test system is CCRF-CEM leukemia.
For assay [3], the system named is HCT-116 colon.
The test system of assay [4] is HT29 colon.
Assay [5] concerns LOX IMVI melanoma.
Assay [6] deals with MALME-3M melanoma.
Assay [7] has as its system MOLT-4 leukemia.
The test system of assay [8] is RPMI-8226 leukemia.
Assay [9] relates to SF-268 CNS.
Assay [10] has as its system UO-31 renal.

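Dose response: 5 concentrations. Exposure: 48 h. Format: 96-well plates. Endpoint: linear interpolation; highest concentration if not reached. Abbreviation: GI50, concentration required for 50% inhibition of growth. TGI denotes the concentration required for complete inhibition of growth.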

As to `N/N=C1\C(=O)N(c2ccc(Cl)cc2Cl)C(=O)C(=O)C1c1nc2ccccc2o1` (stereo not drawn), the TGI in [1], in [2], in [3], in assay [4], in assay [5] and in assay [6] was over 100 µM each time. Besides, the TGI in assay [7], in assay [8], in [9] and in assay [10] was over 100 µM each time.

Regarding `Cc1nc(Nc2cccnc2)sc1C(=O)/C=C/c1ccc(Cl)cc1`, the GI50 was 3.15 µM in assay [1]; 3.31 µM in [2]; 1.85 µM in assay [3]; 2.85 µM in assay [4]; 1.83 µM in assay [5]; 3.3 µM in assay [6]. The GI50 in [7] was 3.49 µM; in assay [8], 2.5 µM; in [9] it was 4.34 µM; in assay [10], 1.81 µM. In addition, the TGI in assay [1] was 15.1 µM; in assay [2] it was over 100 µM; in assay [3] it was 5.03 µM; in assay [4], 9.43 µM; in assay [5], 3.75 µM; in assay [6], 23.6 µM. In addition, the TGI in [7] is over 100 µM; in [8] it was 9.03 µM; in assay [9] it was over 100 µM; in [10], 4.61 µM.

Turning to `c1ccc2c(c1)oc1ccc3nsnc3c12`, the TGI in assay [1] was over 100 µM; in assay [2] it was over 100 µM; in assay [3] it was over 100 µM; in assay [4], over 100 µM; in assay [5] it was over 10 µM; in assay [6] it was over 100 µM. The TGI in [7], in [9] and in assay [10] was over 100 µM throughout.

As for `CCN(c1cc(-c2ccc(CN3CCOCC3)cc2)cc(C(=O)NCc2c(C)cc(C)[nH]c2=O)c1C)C1CCOCC1`, the GI50 in assay [1] is 20.3 µM; in assay [2] it was 30.6 µM; in assay [3] it was 18.5 µM; in assay [4] it was 15.7 µM; in assay [5], 15.9 µM; in [6] it was 14.4 µM. In addition, the GI50 in assay [7] was 21.6 µM; in [8], 20 µM; in assay [9], 26.2 µM; in assay [10] it was 14.9 µM. Besides, the TGI in assay [1] was over 100 µM; in assay [2], over 85.4 µM; in [3] it was 40.3 µM; in [4] it was 35.6 µM; in assay [5] it was 30.3 µM; in [6] it was 28.9 µM. For the same compound, the TGI is 93.8 µM in assay [7], over 59.8 µM in assay [8], over 93.6 µM in assay [9] and over 51.3 µM in assay [10].

`O=C1/C(=C/c2ccccc2)CN(C(=O)CCN2CCCC2)C/C1=C\c1ccccc1`: the TGI in assay [1] turned out to be 14.8 µM; in [2] it was 1.06 µM; in assay [3], 0.674 µM; in assay [4], 2.54 µM; in assay [5], 1.85 µM; in assay [6] it was 11.4 µM. Besides, the TGI was determined as 1.68 µM in [7], 2.46 µM in assay [8], 5.8 µM in [9] and 7.73 µM in [10].

`N.N.N.N.N.O=[N+]([O-])[O-].[Co+3].[O-][Cl+3]([O-])([O-])[O-]`: the GI50 in [2], in [3], in assay [4], in assay [5], in assay [6] and in [7] was over 100 µM each time. In addition, the GI50 in assay [8], in [9] and in [10] was over 100 µM each time. Further, the TGI in assay [2], in assay [3], in assay [4], in assay [5], in assay [6] and in assay [7] was over 100 µM each time. The TGI in [8], in assay [9] and in assay [10] was over 100 µM in each case.

Consider `Cc1nn2c(/C=C3/C(=O)Nc4cc(Cl)ccc43)c(-c3ccccc3)nc2s1`, for which the GI50 in [1] was 1.87 µM; in assay [2], 4.35 µM; in assay [3], 1.85 µM; in assay [4], 11.1 µM; in assay [5] it was 2.41 µM; in assay [6] it was 1.89 µM. For the same compound, the GI50 is 4.11 µM in assay [7], 6.81 µM in [9] and 1.59 µM in assay [10]. The total growth inhibition concentration (TGI) in assay [1] was 4.38 µM; in [2], over 100 µM; in assay [3] it was 3.46 µM; in assay [4], over 100 µM; in assay [5], 6.02 µM; in [6], 3.91 µM. The figures for the TGI in assay [7], in assay [9] and in assay [10] were over 100 µM, over 100 µM and 3.53 µM, respectively.

In the case of `c1ccc(CN2CCC(Nc3ccccc3)(c3nnnn3Cc3ccccc3)CC2)cc1`, the TGI was 88.3 µM in [2]; 53.4 µM in assay [3]; 24.2 µM in assay [4]; 43.5 µM in [5]; 34.9 µM in assay [6]; over 100 µM in [7]. Besides, the TGI in assay [8] was over 100 µM; in [9], over 100 µM; in [10] it was 26.6 µM.

Turning to `CC(=O)O[C@]1(C)OC(=O)[C@@H](CC(C)C)N1[N+](=O)[O-]`, the TGI in assay [2], in [3], in assay [4], in assay [5], in assay [6] and in [7] was over 100 µM throughout. For the same compound, the TGI in [8] and in assay [10] was over 100 µM throughout.

On to `S=c1nc(N/N=C/c2ccco2)c2cn[nH]c2[nH]1`, for which the GI50 in assay [1] was 52.9 µM; in assay [2] it was 2.2 µM; in [3] it was 25 µM; in assay [5], 58.7 µM; in assay [6], over 100 µM; in assay [8] it was 18.2 µM. The values for the GI50 in assay [9] and in assay [10] were 48.4 µM and 98.1 µM, respectively. Moreover, the total growth inhibition concentration (TGI) in [1], in assay [2], in [3], in [5], in [6] and in assay [8] was over 100 µM in each case. In addition, the TGI in [9] and in assay [10] was over 100 µM throughout.

Usually TGI stands for the concentration at which net growth stops. A high value points to lower sensitivity of the cells. Broadly, the GI50 is the concentration at which growth is held to half of that of the control.
